Read-outs that look alike come from different tables or passages of the source. Marks after values point to notes of the source that are not given here.
Tests used:
[1] = test system: Strongyloides stercoralis infective larvae; assay: Immobilisation of S. stercoralis infective larvae incubated in 0.6% AI suspensions; assay type: cell-based; conditions: for Relative activity (RA), immobilisation / Larvae immobilized: 0.6% AI; for Relative activity (RA), immobilisation: RA of albendazole used as reference; for It50 (hours) ±95% Fiducial limits (FL), immobilisation time: 0.6% active ingredient, S. stercoralis infective larvae; for Larvae immobilized: within one hour's exposure
Description: (§1) Coproculture of about 30 g of fresh, moistened canine faeces was conducted using granular charcoal (1:1 v:v) in sealed 10 cm diameter Petri dishes. Cultures were maintained at 26° C. under semi-lighted conditions. S. stercoralis filariform larvae typically migrated to the surface of the culture and eventually into water droplets that condensed on the inner surface of the lid. Larvae appearing within 2 days were mostly those accruing from the homogonic cycle and usually occurred in insufficient numbers for bioassay. After five to eight days had elapsed free-living adult worms had effected a 50-fold increase in the population density (heterogonic cycle).
The effectiveness of the tested compounds was evaluated by incubating larvae obtained as in Example 1 in suspensions containing 0.6% of Compound (1) as the active ingredient (AI). Incubation times were 1, 2, 3, 4, 5, 6, 24, 48, 72, and 96 hours. Three (3) replicates were run in each assay, using >>100 larvae per replicate.
The anthelmintic effectiveness of Compound (1) and of three commercial anthelmintics, namely albendazole, thiabendazole, and ivermectin, was evaluated, and the results are summarized in Table 1. Compound (1) immobilized 100% of the larvae within one hour's exposure. This was also true for ivermectin. However, similar concentrations of albendazole and thiabendazole immobilized 50% of the infective larvae only after 73.7 and 78.9 hours, respectively.

[2] = test system: Strongyloides stercoralis infective larvae; assay: microbe, parasite or virus in culture; assay type: cell-based; conditions: for Relative activity (RA), mortality: RA of Compound (1) used as reference; for Lt50 (hours) ±95% Fiducial limits (FL), mortality time: S. stercoralis infective larvae; for mortality at 0.6 % strength: Strongyloides stercoralis, read-out: Larvae killed (mortality)
Description: as §1
The lethality of the tested compounds was evaluated by incubating larvae obtained as in Example 1 in suspensions containing 0.6% of Compound (1) as the active ingredient (AI).
The mortality of the larvae was assessed by a dye exclusion test such as have been used successfully to indicate viability in parasitic platyhelminths. (See Halton & Arme (1971) Exp. Parasit. 30:54; Robinson & Arme (1985) Ann. Trop. Med. & Parasit. 79:17.) Similar testing was applied to S. stercoralis larvae. In these tests, use of
0.01% v/v eosin in LNSS (ELNSS) in an eosin-exclusion test indicated death of larvae in less than 10 minutes and had no effect on healthy individuals.

Compound	Relative activity (RA), immobilisation [1]	It50 (hours) ±95% Fiducial limits (FL), immobilisation time [1]	It50 (hours) ±95% Fiducial limits (FL), immobilisation time ([1]; listed as albendazole) [h]	Relative activity (RA), mortality ([2]; 0.6% AI)	Lt50 (hours) ±95% Fiducial limits (FL), mortality time ([2]; 0.6% AI)	mortality at 0.6 % strength ([2]; 120 h) [%]	Larvae immobilized [1] [%]	Lt50 (hours) ±95% Fiducial limits (FL), mortality time ([2]; 0.6% AI, listed as Compound(1))	Fold increase in lethal activity over albendazole ([2]; Lt50 basis, 0.6% AI, versus albendazole) [fold]	Fold increase in lethal activity over ivermectin ([2]; Lt50 basis, 0.6% AI, versus ivermectin) [fold]	Fold increase in lethal activity over thiabendazole ([2]; Lt50 basis, 0.6% AI, versus thiabendazole) [fold]	mortality at 0.6 % strength ([2]; 6 h, after six hours, 0.6% AI) [%]	It50 (hours) ±95% Fiducial limits (FL), immobilisation time ([1]; listed as thiabendazole) [h]	Lt50 (hours) ±95% Fiducial limits (FL), mortality time ([2]; 0.6% AI, listed as ivermectin) [h]	Larvae killed (mortality) ([2]; after 24 hours, 0.6% AI) [%]
CCCSc1ccc2nc(NC(=O)OC)[nH]c2c1 [Albendazole, albendazole]	1.00	73.7 (60.4-87.0) hours	73.7	0.02	145.3 h	37.4	–	–	–	–	–	–	–	–	–
CCCCCCCCC/C=C/C=O [Compound (1), E-2-dodecenal]	>1.00	<1* hours	–	1.00*	2.2 h	–	100	2.2 (1.2-3.3) hours	66.1	7.1	81.3	90.8	–	–	–
c1ccc2[nH]c(-c3cscn3)nc2c1 [Thiabendazole]	0.93	78.9 (65.5-92.8) hours	–	0.01	178.9 h	14.1	–	–	–	–	–	–	78.9	–	–
ivermectin	>1.00	<1* hours	–	0.14	15.7 (12.5-18.1) hours	–	100	–	–	–	–	–	–	15.7	89.0

Reference: US20040214900A1, “Method of treating strongyloides infections and medicaments therefor” (priority 2003, published 2004)
